# Results as given in ChEMBL document CHEMBL5550219, “Distinct Amino Acid-Based PROTACs Target Oncogenic Kinases for Degradation in Non-Small Cell Lung Cancer (NSCLC)” (J Med Chem, 2024).
# Active and inactive are the calls of the source. The calls are words filed in the database; no cut-off is given here.
# Columns and labels:
# [1] = test system: SK-N-BE(2); assay: Effect on wild-type ALK in human SK-N-BE(2) cells upto 20 uM incubated for 48 hrs by immunoblot analysis; assay type: functional, cell-based
# [2] = test system: SH-SY5Y; assay: Effect on ALK F1174L mutant in human SH-SY5Y cells upto 20 uM incubated for 48 hrs by immunoblot analysis; assay type: functional, cell-based
# [3] = test system: A549; assay: Effect on wild-type EGFR expression in human A549 cells upto 20 uM incubated for 72 hrs by immunoblot analysis; assay type: functional, cell-based
# [4] = test system: NCI-H1299; assay: Effect on wild-type EGFR expression in human NCI-H1299 cells upto 20 uM incubated for 72 hrs by immunoblot analysis; assay type: functional, cell-based
# [5] = test system: PC-9; assay: Effect on EGFR del19 mutant expression in human PC-9 cells upto 20 uM incubated for 72 hrs by immunoblot analysis; assay type: functional, cell-based
# [6] = test system: NCI-H3122; assay: Inhibition of cell viability in human NCI-H3122 cells incubated for 48 to 72 hrs by CCK8 assay
# [7] = test system: NCI-H1975; assay: Inhibition of cell viability in human NCI-H1975 cells incubated for 48 to 72 hrs by CCK8 assay
# [8] = test system: HEK-293T; assay: Inhibition of cell viability in HEK293T cells upto 20 uM incubated for 48 hrs by CCK8 assay; assay type: toxicity, cell-based; settings: human
# [9] = test system: NCI-H3122; assay: Inhibition of cell viability in human NCI-H3122 cells harboring sgGID4 incubated for 48 hrs by CCK8 assay; assay type: functional, cell-based
# [10] = test system: NCI-H1975; assay: Inhibition of cell viability in human NCI-H1975 cells harboring sgGID4 incubated for 72 hrs by CCK8 assay; assay type: functional, cell-based
# [11] = test system: NCI-H3122; assay: Induction of cell cycle arrest at G1 phase in human NCI-H3122 cells at 5 uM incubated for 48 hrs by flow cytometry (reference value: 64.9 +/- 0.6 %); assay type: functional
# [12] = test system: NCI-H3122; assay: Induction of cell cycle arrest at S phase in human NCI-H3122 cells at 5 uM incubated for 48 hrs by flow cytometry (reference value: 25.7 +/- 0.4 %); assay type: functional
# [13] = test system: NCI-H3122; assay: Induction of cell cycle arrest at G2 phase in human NCI-H3122 cells at 5 uM incubated for 48 hrs by flow cytometry (reference value: 9.4 +/- 0.5 %); assay type: functional
# [14] = test system: NCI-H3122; assay: Induction of cell cycle arrest at G1 phase in human NCI-H3122 cells at 10 uM incubated for 48 hrs by flow cytometry (reference value: 64.9 +/- 0.6 %); assay type: functional
# [15] = test system: NCI-H3122; assay: Induction of cell cycle arrest at S phase in human NCI-H3122 cells at 10 uM incubated for 48 hrs by flow cytometry (reference value: 25.7 +/- 0.4 %); assay type: functional
# [16] = test system: NCI-H3122; assay: Induction of cell cycle arrest at G2 phase in human NCI-H3122 cells at 10 uM incubated for 48 hrs by flow cytometry (reference value: 9.4 +/- 0.5 %); assay type: functional
# [17] = test system: NCI-H1975; assay: Induction of cell cycle arrest at G1 phase in human NCI-H1975 cells at 10 uM incubated for 72 hrs by flow cytometry (reference value: 44.5 +/- 1.5 %); assay type: functional
# [18] = test system: NCI-H1975; assay: Induction of cell cycle arrest at S phase in human NCI-H1975 cells at 10 uM incubated for 72 hrs by flow cytometry (reference value: 12.1 +/- 0.7 %); assay type: functional
# [19] = test system: NCI-H1975; assay: Induction of cell cycle arrest at G2 phase in human NCI-H1975 cells at 10 uM incubated for 72 hrs by flow cytometry (reference value: 43.4 +/- 1.5 %); assay type: functional
# [20] = test system: NCI-H1975; assay: Induction of cell cycle arrest at G1 phase in human NCI-H1975 cells at 20 uM incubated for 72 hrs by flow cytometry (reference value: 44.5 +/- 1.5 %); assay type: functional
# [21] = test system: NCI-H1975; assay: Induction of cell cycle arrest at S phase in human NCI-H1975 cells at 20 uM incubated for 72 hrs by flow cytometry (reference value: 12.1 +/- 0.7 %); assay type: functional
# [22] = test system: NCI-H1975; assay: Induction of cell cycle arrest at G2 phase in human NCI-H1975 cells at 20 uM incubated for 72 hrs by flow cytometry (reference value: 43.4 +/- 1.5 %); assay type: functional
# [23] = test system: NCI-H3122; assay: Induction of apoptosis in human NCI-H3122 cells assessed as increase in early apoptotic cells incubated for 48 hrs by Annexin V-FITC/PI staining based flow cytometry; assay type: functional, cell-based; settings: dose 5-10 µM
# [24] = test system: NCI-H1975; assay: Induction of apoptosis in human NCI-H1975 cells assessed as increase in early apoptotic cells incubated for 72 hrs by Annexin V-FITC/PI staining based flow cytometry; assay type: functional, cell-based; settings: dose 10-20 µM
# [25] = test system: NCI-H3122; assay: Induction of apoptosis in human NCI-H3122 cells assessed as increase in late apoptotic cells incubated for 48 hrs by Annexin V-FITC/PI staining based flow cytometry; assay type: functional, cell-based; settings: dose 5-10 µM
# [26] = test system: NCI-H1975; assay: Induction of apoptosis in human NCI-H1975 cells assessed as increase in late apoptotic cells incubated for 72 hrs by Annexin V-FITC/PI staining based flow cytometry; assay type: functional, cell-based; settings: dose 10-20 µM
# [27] = Tmax in mouse at 2 mg/kg, iv measured for 12 hrs by HPLC analysis; assay type: ADME, organism-based; settings: in vivo
# [28] = Half life in mouse at 2 mg/kg, iv measured for 12 hrs by HPLC analysis; assay type: ADME, organism-based; settings: in vivo
# [29] = Cmax in mouse at 2 mg/kg, iv measured for 12 hrs by HPLC analysis; assay type: ADME, organism-based; settings: in vivo
# [30] = AUC (0 to t) in mouse at 2 mg/kg, iv measured for 12 hrs by HPLC analysis; assay type: ADME, organism-based; settings: in vivo
# [31] = Tmax in mouse at 50 mg/kg, ip measured for 12 hrs by HPLC analysis; assay type: ADME, organism-based; settings: in vivo
# [32] = Half life in mouse at 50 mg/kg, ip measured for 12 hrs by HPLC analysis; assay type: ADME, organism-based; settings: in vivo
# [33] = Cmax in mouse at 50 mg/kg, ip measured for 12 hrs by HPLC analysis; assay type: ADME, organism-based; settings: in vivo
# [34] = AUC (0 to t) in mouse at 50 mg/kg, ip measured for 12 hrs by HPLC analysis; assay type: ADME, organism-based; settings: in vivo
# [35] = […] measured for 12 hrs by HPLC analysis; assay type: ADME, organism-based; settings: in vivo
smiles,measurement,setting,value
COc1cc(N2CCN(C(=O)CCOCCOCCOCCNC(=O)[C@@H]3CCCN3)CC2)ccc1Nc1ncc(Cl)c(Nc2ccccc2P(C)(C)=O)n1,Activity,[1],inactive
same,Activity,[2],inactive
same,Activity,[3],inactive
same,Activity,[4],inactive
same,Activity,[5],inactive
same,IC50,[6],0.16 µM
same,IC50,[7],8.8 µM
same,Activity,[8],Non-Toxic
same,inhibition,[9],inactive
same,inhibition,[10],inactive
same,Activity,[11],84.2%
same,Activity,[12],7.3%
same,Activity,[13],8.1%
same,Activity,[14],90.4%
same,Activity,[15],3.9%
same,Activity,[16],5.5%
same,Activity,[17],57.3%
same,Activity,[18],10.2%
same,Activity,[19],32.5%
same,Activity,[20],78.4%
same,Activity,[21],5.7%
same,Activity,[22],15.9%
same,Activity,[23],Dose-Dependent Effect
same,Activity,[24],Dose-Dependent Effect
same,Activity,[25],Dose-Dependent Effect
same,Activity,[26],Dose-Dependent Effect
same,Tmax,[27],4.98 min
same,half-life,[28],2.87 h
same,Cmax,[29],3.72 µg/mL
same,AUC(0-t) at 12 h,[30],6.08 µg·h/mL
same,Tmax,[31],0.5 h
same,half-life,[32],5.18 h
same,Cmax,[33],33 µg/mL
same,AUC(0-t) at 12 h,[34],80.8 µg·h/mL
same,bioavailability,[35],53.2%
